pEC50: −log10 of the molar value.
Biological target: T1, human M2 receptor (Homo sapiens, UniProt P08172)
T1 sequence (P08172 1-466): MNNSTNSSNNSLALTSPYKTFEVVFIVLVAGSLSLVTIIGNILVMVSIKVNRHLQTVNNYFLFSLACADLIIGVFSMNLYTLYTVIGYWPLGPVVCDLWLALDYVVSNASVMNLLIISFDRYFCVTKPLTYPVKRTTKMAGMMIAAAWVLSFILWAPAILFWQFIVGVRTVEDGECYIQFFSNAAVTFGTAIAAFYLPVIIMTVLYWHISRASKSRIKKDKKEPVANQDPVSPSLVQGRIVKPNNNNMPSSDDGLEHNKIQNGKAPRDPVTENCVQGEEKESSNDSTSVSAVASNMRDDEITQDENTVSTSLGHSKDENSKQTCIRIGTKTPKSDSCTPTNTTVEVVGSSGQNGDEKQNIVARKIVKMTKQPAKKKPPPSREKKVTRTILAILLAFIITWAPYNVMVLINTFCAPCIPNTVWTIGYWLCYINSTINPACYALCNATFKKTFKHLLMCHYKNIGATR
Assay: Functional M2-GIRK1/4 activation test: allosteric potency (EC50) and efficiency
Settings: for pEC50: Receptor activity EC50, CHO-DUKX-M2-GIRK cells, acetylcholine at EC20, in some cases mean of two or more determinations; for Emax: read-out: Efficiency, boosting of the acetylcholine effect at EC20 acetylcholine concentration; for Emax / Efficiency: CHO-DUKX-M2-GIRK cells; for Efficiency: boosting of the acetylcholine effect at EC20 acetylcholine concentration

SMILES | pEC50 | Emax | Efficiency
O=C(NC(C(F)(F)F)C(F)(F)F)c1cn(-c2ncc(F)cc2F)c2nc(N3CC4CC4(O)C3)ccc2c1=O (single isomer, unassigned) [Example 58, 1-(3,5-Difluoropyridin-2-yl)-N-(1,1,1,3,3,3-hexafluoropropan-2-yl)-7-[1-hydroxy-3-azabicyclo[3.1.0]hex-3-yl]-4-oxo-1,4-dihydro-1,8-naphthyridine-3-carboxamide] | 7.96 | 96% | –
CC(C)C[C@H](NC(=O)c1cn(-c2ncc(F)cc2F)c2nc(N3C[C@@H](O)CC3=O)ccc2c1=O)C(F)(F)F [Example 75, 1-(3,5-Difluoropyridin-2-yl)-7-[(4S)-4-hydroxy-2-oxopyrrolidin-1-yl]-4-oxo-N-[(2S)-1,1,1-trifluoro-4-methylpentan-2-yl]-1,4-dihydro-1,8-naphthyridine-3-carboxamide] | 7.72 | 100% | –
O=C(N[C@H](C1CC1)C(F)(F)F)c1cn(-c2ncc(F)cc2F)c2nc(N3CCCN(CCO)C3=O)ccc2c1=O [Example 122, N-[(1R)-1-Cyclopropyl-2,2,2-trifluoroethyl]-1-(3,5-difluoropyridin-2-yl)-7-[3-(2-hydroxyethyl)-2-oxotetrahydropyrimidin-1(2H)-yl]-4-oxo-1,4-dihydro-1,8-naphthyridine-3-carboxamide] | 6.66 | 92% | –
CC[C@H](NC(=O)c1cn(-c2ncc(F)cc2F)c2nc(N3CC(O)C(C)C3=O)ccc2c1=O)C(F)(F)F (single isomer, unassigned) [Example 109] | 6.87 | 96% | –
O=C(NC1(C(F)(F)F)CCC1)c1cn(-c2ncc(F)cc2F)c2nc(N3C[C@@H](O)[C@H](O)C3)ccc2c1=O [Example 155, 1-(3,5-Difluoropyridin-2-yl)-7-[(3R,4R)-3,4-dihydroxypyrrolidin-1-yl]-4-oxo-N-[1-(trifluoromethyl)cyclobutyl]-1,4-dihydro-1,8-naphthyridine-3-carboxamide] | 6.44 | 100% | –
CC[C@H](NC(=O)c1cn(-c2ncc(F)cc2F)c2nc(N3CCN(CCO)C3=O)ccc2c1=O)C(F)(F)F [Example 119, 1-(3,5-Difluoropyridin-2-yl)-7-[3-(2-hydroxyethyl)-2-oxoimidazolidin-1-yl]-4-oxo-N-[(2S)-1,1,1-trifluorobutan-2-yl]-1,4-dihydro-1,8-naphthyridine-3-carboxamide] | 6.10 | 92% | –
CC1C(=O)N(c2ccc3c(=O)c(C(=O)N[C@@H](C4CC4)C(F)(F)F)cn(-c4ncc(F)cc4F)c3n2)CC1O (mixture of isomers) [Example 104, N-[(1S)-1-Cyclopropyl-2,2,2-trifluoroethyl]-1-(3,5-difluoropyridin-2-yl)-7-[4-hydroxy-3-methyl-2-oxopyrrolidin-1-yl]-4-oxo-1,4-dihydro-1,8-naphthyridine-3-carboxamide] | 6.60 | 98.5% | –
O=C(N[C@@H](C1CC1)C(F)(F)F)c1cn(-c2ncc(F)cc2F)c2nc(N3CCCN(CCO)C3=O)ccc2c1=O [Example 123, N-[(1S)-1-Cyclopropyl-2,2,2-trifluoroethyl]-1-(3,5-difluoropyridin-2-yl)-7-[3-(2-hydroxyethyl)-2-oxotetrahydropyrimidin-1(2H)-yl]-4-oxo-1,4-dihydro-1,8-naphthyridine-3-carboxamide] | 6.62 | 98% | –
CC(C)(CC(F)(F)F)NC(=O)c1cn(-c2ncc(F)cc2F)c2nc(N3CCNC3=O)ccc2c1=O [Example 145, 1-(3,5-Difluoropyridin-2-yl)-4-oxo-7-(2-oxoimidazolidin-1-yl)-N-(4,4,4-trifluoro-2-methylbutan-2-yl)-1,4-dihydro-1,8-naphthyridine-3-carboxamide] | 6.36 | 98.5% | –
CC1CC(=O)N(c2ccc3c(=O)c(C(=O)N[C@H](C4CC4)C(F)(F)F)cn(-c4ncc(F)cc4F)c3n2)C1 (single isomer, unassigned) [Example 29] | 7.23 | – | 98.00%
O=C(NC(C(F)(F)F)C(F)(F)F)c1cn(-c2ncc(F)cc2F)c2nc(N3CCC(CO)(CO)CC3)ccc2c1=O [Example 186, 7-[4,4-Bis(hydroxymethyl)piperidin-1-yl]-1-(3,5-difluoropyridin-2-yl)-N-(1,1,1,3,3,3-hexafluoropropan-2-yl)-4-oxo-1,4-dihydro-1,8-naphthyridine-3-carboxamide] | 6.96 | 100% | –
CC[C@H](NC(=O)c1cn(-c2ncc(F)cc2F)c2nc(N3C[C@@H](C)NC3=O)ccc2c1=O)C(F)(F)F [Example 143, 1-(3,5-difluoropyridin-2-yl)-7-[(4R)-4-methyl-2-oxoimidazolidin-1-yl]-4-oxo-N-[(2S)-1,1,1-trifluorobutan-2-yl]-1,4-dihydro-1,8-naphthyridine-3-carboxamide] | 7.05 | 90% | –
CC(NC(=O)c1cn(-c2ncc(F)cc2F)c2nc(N3C[C@@H](O)[C@H](O)C3)ccc2c1=O)C(F)(F)C(F)(F)F (mixture of isomers) [Example 88, 1-(3,5-Difluoropyridin-2-yl)-7-[(3R,4R)-3,4-dihydroxypyrrolidin-1-yl]-4-oxo-N-[3,3,4,4,4-pentafluorobutan-2-yl]-1,4-dihydro-1,8-naphthyridine-3-carboxamide] | 7.23 | 99.5% | –
O=C(N[C@H](C1CC1)C(F)(F)F)c1cn(-c2ncc(F)cc2Cl)c2nc(N3C[C@@H](O)[C@@H](O)C3)ccc2c1=O [Example 50, 1-(3-Chloro-5-fluoropyridin-2-yl)-N-[(1R)-1-cyclopropyl-2,2,2-trifluoroethyl]-7-[(3R,4S)-3,4-dihydroxypyrrolidin-1-yl]-4-oxo-1,4-dihydro-1,8-naphthyridine-3-carboxamide] | 6.14 | 92% | –
CC(NC(=O)c1cn(-c2ncc(F)cc2F)c2nc(N3C[C@@H](O)CC3=O)ccc2c1=O)C(F)(F)C(F)(F)F (mixture of isomers) [Example 76, 1-(3,5-Difluoropyridin-2-yl)-7-[(4S)-4-hydroxy-2-oxopyrrolidin-1-yl]-4-oxo-N-[3,3,4,4,4-pentafluorobutan-2-yl]-1,4-dihydro-1,8-naphthyridine-3-carboxamide] | 7.46 | 94% | –
CC(C)C(NC(=O)c1cn(-c2ncc(F)cc2F)c2nc(N3C[C@@H](O)CC3=O)ccc2c1=O)C(F)(F)F (stereo partly drawn) [Example 154, 1-(3,5-Difluoropyridin-2-yl)-7-[(4S)-4-hydroxy-2-oxopyrrolidin-1-yl]-4-oxo-N-[1,1,1-trifluoro-3-methylbutan-2-yl]-1,4-dihydro-1,8-naphthyridine-3-carboxamide] | 7.05 | 100% | –
O=C(NC1(C(F)(F)F)CCC1)c1cn(-c2ncc(F)cc2F)c2nc(N3C[C@@H](O)CC3=O)ccc2c1=O [Example 151, 1-(3,5-Difluoropyridin-2-yl)-7-[(4S)-4-hydroxy-2-oxopyrrolidin-1-yl]-4-oxo-N-[1-(trifluoromethyl)cyclobutyl]-1,4-dihydro-1,8-naphthyridine-3-carboxamide] | 6.54 | 99% | –
CC[C@@H](NC(=O)c1cn(-c2ncc(F)cc2F)c2nc(N3C[C@@H](O)[C@H](O)C3)ccc2c1=O)C(F)(F)F [Example 42, 1-(3,5-Difluoropyridin-2-yl)-7-[(3R,4R)-3,4-dihydroxypyrrolidin-1-yl]-4-oxo-N-[(2R)-1,1,1-trifluorobutan-2-yl]-1,4-dihydro-1,8-naphthyridine-3-carboxamide] | 6.53 | 100% | –
O=C(NC(C(F)(F)F)C(F)(F)F)c1cn(-c2ncc(F)cc2F)c2nc(N3CCCC[C@@H]3CO)ccc2c1=O [Example 178, 1-(3,5-Difluoropyridin-2-yl)-N-(1,1,1,3,3,3-hexafluoropropan-2-yl)-7-[(2R)-2-(hydroxymethyl)piperidin-1-yl]-4-oxo-1,4-dihydro-1,8-naphthyridine-3-carboxamide] | 7.25 | 100% | –
CC(NC(=O)c1cn(-c2ncc(F)cc2F)c2nc(N3C[C@@H](O)CC3=O)ccc2c1=O)C(F)(F)C(F)(F)F (single isomer, unassigned) [Example 78] | 7.36 | – | 91.50%
O=C(N[C@H](C1CC1)C(F)(F)F)c1cn(-c2ncc(F)cc2F)c2nc(N3CCNC3=O)ccc2c1=O [Example 65, N-[(1R)-1-Cyclopropyl-2,2,2-trifluoroethyl]-1-(3,5-difluoropyridin-2-yl)-4-oxo-7-(2-oxoimidazolidin-1-yl)-1,4-dihydro-1,8-naphthyridine-3-carboxamide] | 7.06 | 100% | –
O=C(NC1(C(F)(F)F)CCCC1)c1cn(-c2ncc(F)cc2F)c2nc(N3C[C@@H](O)[C@H](O)C3)ccc2c1=O [Example 87, 1-(3,5-Difluoropyridin-2-yl)-7-[(3R,4R)-3,4-dihydroxypyrrolidin-1-yl]-4-oxo-N-[1-(trifluoromethyl)cyclopentyl]-1,4-dihydro-1,8-naphthyridine-3-carboxamide] | 7.20 | 100% | –
O=C(NC1(C(F)(F)F)CCCC1)c1cn(-c2ncc(F)cc2F)c2nc(N3C[C@@H](O)CC3=O)ccc2c1=O [Example 79, 1-(3,5-Difluoropyridin-2-yl)-7-[(4S)-4-hydroxy-2-oxopyrrolidin-1-yl]-4-oxo-N-[1-(trifluoromethyl)cyclopentyl]-1,4-dihydro-1,8-naphthyridine-3-carboxamide] | 7.27 | 100% | –
